Results from patent US20240343710A1, “HETEROCYCLIC COMPOUNDS AND METHODS OF USE THEREOF” (1cBio, Inc., priority 2023, published 2024).
Structures can show the parent of a compound that is named as a salt. Where two headings read alike, the source gives them in different places.

What was measured:
[1] = biological target: recombinant human PARP1 (Homo sapiens, UniProt P09874); experiment: PARP1 fluorescence polarization binding assay; details: GST-tagged PARP1 20 nM, PARP1-FL probe 3 nM
Procedure, shortened: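 GST-tagged human PARP1 (20 nM final) preincubated 30 min at RT with compound (10-point 3-fold series or single concentration). PARP1-FL probe (3 nM final) added, then 4 h at RT. Buffer: 50 mM Tris pH 8.0, 10 mM MgCl2, 150 mM NaCl, 0.001% Triton X-100. FP mP values normalized to controls; IC50 from four-parameter fit.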

[2] = biological target: recombinant human PARP2 (Homo sapiens, UniProt Q9UGN5); experiment: PARP2 fluorescence polarization binding assay; details: read-out: PARP2 % inh at 10 μM
[3] = test system: DLD-1 BRCA2(−/−) colorectal adenocarcinoma cells; experiment: Cell viability assay (Cell Titer-Glo, 7 days), DLD-1 BRCA2(−/−); format: cell-based; details: Homo sapiens, 168 h, DLD-1 BRCA2(−/−) cells
[4] = test system: DLD-1 wild-type colorectal adenocarcinoma cells; experiment: Cell viability assay (Cell Titer-Glo, 7 days), DLD-1 wild-type; format: cell-based; details: Homo sapiens, 168 h, DLD-1 wild-type cells, read-out: DLD-1 wild-type % inh at 10 μM
[5] = percent inhibition at 10 μM, fluorescence polarization, GST-tagged PARP2 20 nM, PARP1-FL probe 3 nM

Sequence of recombinant human PARP1 (P09874 whole entry): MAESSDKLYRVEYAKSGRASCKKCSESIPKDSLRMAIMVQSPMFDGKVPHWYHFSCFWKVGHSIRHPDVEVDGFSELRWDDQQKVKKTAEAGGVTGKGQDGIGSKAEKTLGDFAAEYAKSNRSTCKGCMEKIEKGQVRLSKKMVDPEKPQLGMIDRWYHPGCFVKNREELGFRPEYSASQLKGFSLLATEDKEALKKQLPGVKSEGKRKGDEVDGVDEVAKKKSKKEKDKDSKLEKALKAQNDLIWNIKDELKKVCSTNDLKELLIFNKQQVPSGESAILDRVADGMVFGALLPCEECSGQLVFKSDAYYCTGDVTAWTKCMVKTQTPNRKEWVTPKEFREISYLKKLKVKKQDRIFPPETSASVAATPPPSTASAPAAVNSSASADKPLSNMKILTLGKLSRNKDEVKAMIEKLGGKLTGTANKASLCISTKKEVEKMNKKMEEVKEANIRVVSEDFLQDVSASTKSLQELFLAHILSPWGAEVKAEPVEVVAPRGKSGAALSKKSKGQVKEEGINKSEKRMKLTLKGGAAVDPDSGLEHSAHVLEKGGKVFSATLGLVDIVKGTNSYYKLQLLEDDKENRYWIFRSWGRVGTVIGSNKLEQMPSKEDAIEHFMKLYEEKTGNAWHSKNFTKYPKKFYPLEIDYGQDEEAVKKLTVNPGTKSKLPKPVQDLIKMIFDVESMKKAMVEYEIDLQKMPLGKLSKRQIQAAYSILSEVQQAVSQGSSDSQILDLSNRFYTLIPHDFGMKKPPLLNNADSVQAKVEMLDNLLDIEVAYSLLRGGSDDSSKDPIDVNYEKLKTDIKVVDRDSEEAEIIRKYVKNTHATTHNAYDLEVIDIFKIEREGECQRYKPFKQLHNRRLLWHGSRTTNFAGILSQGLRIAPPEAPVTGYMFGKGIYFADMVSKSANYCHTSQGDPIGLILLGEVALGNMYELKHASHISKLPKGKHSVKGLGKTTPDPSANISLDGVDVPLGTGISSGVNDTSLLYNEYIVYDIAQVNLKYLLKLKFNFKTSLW
Sequence of recombinant human PARP2 (Q9UGN5 whole entry): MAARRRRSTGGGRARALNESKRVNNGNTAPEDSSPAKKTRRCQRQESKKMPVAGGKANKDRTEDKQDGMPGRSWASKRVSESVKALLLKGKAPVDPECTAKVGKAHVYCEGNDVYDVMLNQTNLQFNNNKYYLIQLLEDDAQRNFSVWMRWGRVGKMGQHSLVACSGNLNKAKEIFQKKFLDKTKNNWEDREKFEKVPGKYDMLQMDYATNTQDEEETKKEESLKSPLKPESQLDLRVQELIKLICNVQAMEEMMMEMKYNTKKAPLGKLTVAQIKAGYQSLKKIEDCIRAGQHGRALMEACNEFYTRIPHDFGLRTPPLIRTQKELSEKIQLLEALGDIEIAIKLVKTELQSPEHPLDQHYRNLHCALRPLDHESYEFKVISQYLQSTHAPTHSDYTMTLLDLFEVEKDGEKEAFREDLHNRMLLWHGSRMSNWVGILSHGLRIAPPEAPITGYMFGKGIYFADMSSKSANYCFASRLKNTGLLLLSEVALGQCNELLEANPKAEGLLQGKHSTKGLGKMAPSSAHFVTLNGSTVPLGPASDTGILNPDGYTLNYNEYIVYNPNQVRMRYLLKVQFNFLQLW

IC50 [1]	inhibition at 10 µM [2, 5]	IC50 [3]	Structure (SMILES)	inhibition at 10 µM [4]	inhibition at 10 µM [2]
100 to 3000 nM	< 33%	≥ 3000 nM	CCNC(=O)Nc1cc(CN2CCN(c3ccc(C(=O)NC)nc3C)CC2=O)ccn1 [Compound 29, 5-(4-((2-(3-ethylureido)pyridin-4-yl)methyl)-3-oxopiperazin-1-yl)-N,6-dimethylpicolinamide]	< 33%	–
< 100 nM	< 33%	300 to 3000 nM	CCNC(=O)Nc1cc(CN2CCN(c3ccc(C(=O)NC)c(=O)n3C)CC2)ccn1 [Compound 30, 6-(4-((2-(3-ethylureido)pyridin-4-yl)methyl)piperazin-1-yl)-N,1-dimethyl-2-oxo-1,2-dihydropyridine-3-carboxamide]	< 33%	–
< 100 nM	< 33%	< 300 nM	CCNC(=O)Nc1cc(CN2CCN(c3ccc(-n4cccn4)nc3C)CC2)ccn1 [Compound 24, 1-ethyl-3-(4-((4-(2-methyl-6-(1H-pyrazol-1-yl)pyridin-3-yl)piperazin-1-yl)methyl)pyridin-2-yl)urea]	< 33%	–
< 100 nM	< 33%	< 300 nM	CNC(=O)c1ccc(N2CCN(Cc3ccnc(NC(=O)NCC(F)(F)F)c3)CC2)c(C)n1 [Compound 50, N,6-dimethyl-5-(4-((2-(3-(2,2,2-trifluoroethyl)ureido)pyridin-4-yl)methyl)piperazin-1-y) picolinamide trifluoroacetate]	< 33%	–

Structure (SMILES)	IC50 [1]	inhibition at 10 µM [2, 5]	IC50 [3]	inhibition at 10 µM [4]	inhibition at 10 µM [2]
CCNC(=O)Nc1cc(CN2CCN(c3ccc(C(=O)NC)nc3C)CC2)c(C)cn1 [Compound 70, 5-(4-((2-(3-ethylureido)-5-methylpyridin-4-yl)methyl)piperazin-1-yl)-N,6-dimethylpicolinamide formate]	< 100 nM	–	< 300 nM	< 33%	< 33%
CCNC(=O)Nc1cc(CN2CCN(c3ccc(C(=O)NC)nc3C)CC2)ncn1 [Compound 230, 5-(4-((6-(3-ethylureido)pyrimidin-4-yl)methyl)piperazin-1-yl)-N,6-dimethylpicolinamide formate]	< 100 nM	–	< 300 nM	< 33%	< 33%
